{"source": "patent US10265276B2", "about": "“Pharmaceutical composition for preventing or treating arthritis or inflammatory disease containing 2-methoxy-4-(3-(4-methoxyphenyl)propyl-1-en-1-yl)phenol as active ingredient” (CHUNGBUK NATIONAL UNIVERSITY INDUSTRY-ACADEMIC COOPERATION …, priority 2015, dated 2019)", "key": {"NF-κB": {"tested_on": "NF-κB", "experiment": "EMSA and Western blotting of the NF-κB pathway in LPS-treated RAW 264.7 cells", "format": "cell-based, mouse", "experimental": "10. EMSA assay (Electromobility shift assay): RAW 264.7 cells were cultured for 24 hours to perform an EMSA assay. The relative density of a protein band was scanned using MyImage, and qualitatively analyzed using Labworks 4.0 software (UVP, Inc.).\n(§1) 12. Western blotting assay: A whole cell lysate, a cytosolic extract, and a nuclear extract were obtained. SDS-PAGE and Western blotting assays were carried out as disclosed in published Documents 1 and 2. Simply speaking, the cells were seeded in a 6-well plate at a density of 5×10^5 cells/well, and cultured for 24 hours. Thereafter, the cells were treated with MMPP or DMSO for 24 hours. After the treatment, the cells were washed twice with PBS, and then lyzed. Proteins of the lyzed cells were separated on 10 to 15% SDS-PAGE. The proteins were transferred to a PVDF membrane, and the PVDF membrane was blocked at room temperature for 2.5 hours in a TB S/T buffer containing 5% skim milk. The membrane to which the proteins were transferred was analyzed using, as primary antibodies, murine monoclonal antibodies against Cdk2, Cdk4, Cdk6, cyclin B1, cyclin D1, cyclin E1, Bcl-2, Bax, caspase-3, caspase-8, STAT3, phspho-STAT3, (3-actin, and histone hl. Expression of the proteins was visualized using a chemiluminescence reagent (Amersham Pharmacia Biotech, Inc., Buckinghamshire, UK), and measured using a digital chemiluminescence imaging system equipped with a CCD camera (Fusion-FX, Fisher BioTech, Ltd., Wembley, Australia).\nRAW 264.7 cells were treated with LPS alone or a combination of LPS and MMPP for 30 minutes, and the DNA binding activities of NF-κB and STAT3 were examined using an electrophoretic mobility shift assay (EMSA). Also, the same amount of the total proteins (20 μg/Lane) was subjected to 10% SDS-PAGE, and STAT3, P-STAT3, p50, p65, IKK, lκB, and p-lκB were detected through Western blotting. A (3-actin protein or histone H was used as the control."}, "STAT3 [1]": {"tested_on": "STAT3", "experiment": "Effect of STAT3 siRNA or STAT3 inhibitor on the effect of MMPP in LPS-treated RAW 264.7 cells", "format": "cell-based, mouse", "parameters": "dose or concentration left out as unconfirmed", "experimental": "(§2) 11. Luciferase activity assay: RAW264.7 cells added to a 24-well plate at a density of 1×10^5 cells/well. After 90% confluence, the cells were transiently infected with STAT3 siRNA (Santa Cruz Biotechnology) or a mutant STAT3 (T456A) plasmid using a mixture of STAT3 siRNA (Santa Cruz Biotechnology) or a mutant STAT3 (T456A) plasmid and WelFect-EX PLUS in OPTI-MEN. The infected cells were treated with LPS (1 μg/mL) and different concentrations of MMPP (1 to 4 μg/mL) for 12 hours. The luciferase activity was measured using a luciferase assay kit (Promega, Madison, Wis., USA).\nFirst, a protective effect of MMPP on the LPS-induced pro-inflammatory response was tested using RAW 264.7 cells infected with STAT3 siRNA.\nThe RAW 264.7 cells were infected with STAT3 siRNA. After 24 hours, the infected cells were then treated with […] of LPS alone or in combination with MMPP. Thereafter, the NO generation, the iNOS and COX2 expression, and the DNA binding activity of NF-κB were measured.\nNext, it was examined whether an effect of a STAT3 inhibitor in RAW 264.7 cells was limited. RAW 264.7 cells were treated with a STAT3 inhibitor […] alone or in combination with MMPP, and the NO generation, the iNOS and COX2 expression, and the DNA binding activity of NF-κB were also measured."}, "STAT3 [2]": {"tested_on": "STAT3", "experiment": "STAT3 phosphorylation in LPS-treated RAW 264.7 cells", "format": "cell-based, mouse", "experimental": "as §1, with “Australia). […]” for “Australia).”"}, "mutant STAT3 (T456A)": {"target": "T1, mutant STAT3 (T456A) (Mus musculus, UniProt P42227, T456A)", "T1 construct": "A coding region of Mus musculus STAT3 was amplified by PCR using full-length Mus musculus STAT3 cDNA as a template; host or cells: RAW264.7", "T1 sequence (P42227 whole entry T456A)": "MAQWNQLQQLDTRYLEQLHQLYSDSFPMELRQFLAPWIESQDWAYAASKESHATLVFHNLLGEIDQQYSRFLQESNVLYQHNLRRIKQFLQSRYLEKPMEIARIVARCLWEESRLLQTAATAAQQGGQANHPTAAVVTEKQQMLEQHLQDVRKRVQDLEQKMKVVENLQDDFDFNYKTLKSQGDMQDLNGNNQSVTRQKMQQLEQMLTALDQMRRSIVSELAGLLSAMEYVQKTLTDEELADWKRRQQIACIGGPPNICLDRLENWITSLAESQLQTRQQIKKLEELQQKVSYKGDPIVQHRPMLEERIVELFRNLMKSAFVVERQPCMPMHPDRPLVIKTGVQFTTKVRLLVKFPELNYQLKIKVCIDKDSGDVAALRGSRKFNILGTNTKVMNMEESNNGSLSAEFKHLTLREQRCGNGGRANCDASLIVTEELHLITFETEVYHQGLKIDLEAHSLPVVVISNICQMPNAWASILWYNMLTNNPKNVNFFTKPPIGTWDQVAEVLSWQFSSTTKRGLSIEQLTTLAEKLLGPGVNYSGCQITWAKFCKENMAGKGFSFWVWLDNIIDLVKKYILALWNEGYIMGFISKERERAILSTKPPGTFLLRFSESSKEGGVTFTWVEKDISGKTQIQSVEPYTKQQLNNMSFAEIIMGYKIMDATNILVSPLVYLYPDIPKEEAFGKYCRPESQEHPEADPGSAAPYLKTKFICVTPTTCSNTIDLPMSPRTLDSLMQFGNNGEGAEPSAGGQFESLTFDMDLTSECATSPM", "experiment": "Pull-down assay with mutant STAT3", "format": "binding", "details": "compared to the STAT3", "from_the_text": "As a method for isolating a protein complex, a pull-down assay is an assay for checking a protein-protein interaction. To identify a protein interacting with MMPP, MMPP was bound to […] epoxy-activated Sepharose 6B (Sigma, St Louis, Mo., United States).\n2. Construction of plasmid: A coding region of Mus musculus STAT3 was amplified by PCR using full-length Mus musculus STAT3 cDNA as a template. The purified PCR product was doubly digested with EcoRI and XhoI, and then subcloned into a pcDNA3.1 vector. The pcDNA3.1 plasmid includes a cytomegalovirus promoter, a pUC origin of replication, and an ampicillin-resistant gene. STAT3 (T456A) mutagenesis was performed at Cosmo Genetech Co., Ltd. (Seoul, Korea), and the mutations were systematically checked by sequencing. RAW264.7 cells were seeded in a 24-well plate at a density of 1×10^5 cells/well. The cells were grown for 24 hours to reach 90% confluence, and the cells were infected with the mutant STAT3 (T456A) plasmid (Cosmo Genetech Co., Ltd., Seoul, Korea) using a mixture of the plasmid and lipofectamine in PTI-MEN. The infected cells were treated with LPS (1 μg/mL), and different concentrations of MMPP (1 to 4 μg/mL) for 12 hours. The prepared samples were subjected to Western blotting.\nTo check the interaction between MMPP and STAT3, a pull-down assay was carried out. MMPP was conjugated to epoxy-activated Sepharose 6B. […]"}, "STAT3 [3]": {"tested_on": "STAT3", "experiment": "STAT3-luciferase activity assay in LPS-induced RAW 264.7 cells", "format": "cell-based, mouse", "details": "concentration-dependent manner (0 to 4 mg/mL)", "experimental": "9. Cell infection: RAW 264.7 cells (5×10^4 cells/well) were added to a 24-well plate, and transiently infected with a STAT3-luciferase reporter plasmid and an iNOS-luciferase reporter plasmid using a Lipofectamine PLUS and plasmid mixture in OPTI-MEN.\nas §2, with “The infected cells were treated with LPS (1 μg/mL) and different concentrations of MMPP (1 to 4 μg/mL) for 12 hours.” left out\nRAW 264.7 cells were transiently infected with a STAT3-luciferase construct, treated with LPS (1 μg/mL) alone or a combination of MMPP and LPS, and then activated for 12 hours. Thereafter, the luciferase activity, the ROS and PGE2 expression, and a level of pro-inflammatory cytokines were determined."}, "[4]": {"details": "LPS-induced, co-treated with MMPP"}}, "note": "Like-named read-outs stand apart in the source and are kept apart here."}
{"smiles": "COc1ccc(C/C=C/c2ccc(O)c(OC)c2)cc1", "note": "[MMPP, 2-methoxy-4-(3-(4-methoxyphenyl)prop-1-en-1-yl)phenol]", "values": [{"measurement": "LPS-induced phosphorylation of IKKb and IKKa", "setting": "NF-κB", "result": "inhibited"}, {"measurement": "DNA binding activity and transcriptional activity of NF-κB", "setting": "NF-κB; [4]", "result": "reduced in a concentration-dependent manner"}, {"measurement": "IκB degradation", "setting": "NF-κB; [4]", "result": "reduced in a concentration-dependent manner"}, {"measurement": "nuclear translocation of NF-κB subunits p65 and p50", "setting": "NF-κB; [4]", "result": "reduced in a concentration-dependent manner"}, {"measurement": "inhibitory effect of MMPP on LPS-induced NO generation, iNOS and COX2 expression, and NF-κB activity", "setting": "STAT3 [1]", "result": "completely limited"}, {"measurement": "inhibitory effect of MMPP on LPS-induced NO generation, iNOS and COX2 expression, and NF-κB activity", "setting": "STAT3 [1]; STAT3 knock-down cells (STAT3 siRNA)", "result": "limited"}, {"measurement": "LPS-induced phosphorylation of STAT3", "setting": "STAT3 [2]", "result": "inhibited"}, {"measurement": "binding of MMPP to mutant STAT3 Thr456A", "setting": "mutant STAT3 (T456A)", "result": "reduced"}, {"measurement": "LPS-induced STAT3 luciferase activity", "setting": "STAT3 [3]", "result": "inhibited"}]}
